In patent US10981862B2, “Physiological cooling compounds” (Symrise, Inc., priority 2015, dated 2021):

Test system: not given
Assay: not given
Conditions: not given

melting point	Structure (SMILES)
98 °C	CCCC(C)NC(=O)C(C)(C(C)C)C(C)C (centres unmarked) [Compound B5]
88.4 °C	CC(C)C(C)NC(=O)C(C)(C(C)C)C(C)C (centres unmarked) [Compound B4]
67.1 °C	CCC(C)CNC(=O)C(C)(C(C)C)C(C)C (centres unmarked) [Compound B6]
72.2 °C	CC(C)CCNC(=O)C(C)(C(C)C)C(C)C [Compound B2]
105 °C	CCC(CC)NC(=O)C(C)(C(C)C)C(C)C [Compound B7]
59.4 °C	CC(C)CCCC(C)NC(=O)C(C)(C(C)C)C(C)C (centres unmarked) [Compound B14]

Continued, compound first:

Structure (SMILES)	melting point
CCCCCCNC(=O)C1CC(C)CCC1C(C)C (centres unmarked) [Compound A8]	58.8 °C
CC(C)CCCC(C)NC(=O)C1CC(C)CCC1C(C)C (centres unmarked) [Compound A14]	146.7 °C
CC(C)CCNC(=O)C1CC(C)CCC1C(C)C (centres unmarked) [Compound A2]	69.6 °C
CCC(CC)NC(=O)C1CC(C)CCC1C(C)C (centres unmarked) [Compound A7]	192.6 °C
CC1CCC(C(C)C)C(C(=O)NC(C)(C)CC(C)(C)C)C1 (centres unmarked) [Compound A15]	107 °C
CCC(C)CNC(=O)C1CC(C)CCC1C(C)C (centres unmarked) [Compound A6]	92.8 °C
CC(C)CC(C)NC(=O)C1CC(C)CCC1C(C)C (centres unmarked) [Compound A9]	152.6 °C
CCC(C)(C)NC(=O)C1CC(C)CCC1C(C)C (centres unmarked) [Compound A1]	133.1 °C
CC1CCC(C(C)C)C(C(=O)NC(C)C(C)C)C1 (centres unmarked) [Compound A4]	160.2 °C

Test system: not listed separately
Assay: Cooling evaluation in hard boiled candy
Format: in vivo
Conditions: compared with both control samples
Protocol: Compound A2 was tested in hard boiled candy and evaluated against controls.

Structure (SMILES)	Cooling impact in hard candy, in words
CC(C)CCNC(=O)C1CC(C)CCC1C(C)C (centres unmarked) [Compound A2]	long-lasting cooling impact

Test system: sensory panel
Assay: Sensory panel evaluation of cooling ability, 20 ppm aqueous solutions
Format: in vivo
Design: key to Peak cooling strength / Peak Strength: —: Not cooling under tested conditions
Conditions: 20 ppm aqueous solution
Protocol: The new carboxamides A1-A15 and B1-B15 were evaluated for their cooling ability by a sensory panel. The evaluation included tasting the 20 ppm aqueous solutions of new carboxamides and rating their maximum cooling strength on a 1-10 scale. In addition, the time at which maximum cooling strength was reached, how long the maximum strength was observed (so called cooling plateau), and the longevity of cooling sensation were recorded. The FIGURE represents a typical cooling profile, using compound A1 as an example. The obtained results (table 2), were compared with two most commonly used commercial cooling compounds WS-3 and WS-23 which belong to the same class of N-alkyl carboxamides. While various methods exist for evaluation of cooling compounds, we have chosen the parameters that allow to assess the practical aspects of new compounds that reflect their potential value as commercial sensory ingredients.

Structure (SMILES)	Longevity of cooling sensation	Time to reach peak cooling
CCCC(C)NC(=O)C(C)(C(C)C)C(C)C (centres unmarked) [Compound B5]	15 min	2 min
CCCCCCNC(=O)C1CC(C)CCC1C(C)C (centres unmarked) [Compound A8]	29 min	5 min
CC(C)C(C)NC(=O)C(C)(C(C)C)C(C)C (centres unmarked) [Compound B4]	14 min	3 min
CCC(C)CNC(=O)C(C)(C(C)C)C(C)C (centres unmarked) [Compound B6]	17 min	3 min
CC(C)CCNC(=O)C(C)(C(C)C)C(C)C [Compound B2]	12 min	3 min
CC(C)CCNC(=O)C1CC(C)CCC1C(C)C (centres unmarked) [Compound A2]	23 min	5 min
CCC(CC)NC(=O)C(C)(C(C)C)C(C)C [Compound B7]	14 min	4 min
CCC(CC)NC(=O)C1CC(C)CCC1C(C)C (centres unmarked) [Compound A7]	16 min	3 min
CC1CCC(C(C)C)C(C(=O)NC(C)(C)CC(C)(C)C)C1 (centres unmarked) [Compound A15]	14 min	4 min
CCC(C)CNC(=O)C1CC(C)CCC1C(C)C (centres unmarked) [Compound A6]	20 min	3 min
CC(C)CC(C)NC(=O)C1CC(C)CCC1C(C)C (centres unmarked) [Compound A9]	15 min	5 min
CCC(C)(C)NC(=O)C1CC(C)CCC1C(C)C (centres unmarked) [Compound A1]	25 min	6 min
CC1CCC(C(C)C)C(C(=O)NC(C)C(C)C)C1 (centres unmarked) [Compound A4]	20 min	3 min

Same assay, conditions: 20 ppm aqueous solution; cooling plateau

Structure (SMILES)	Time period at peak cooling
CCCC(C)NC(=O)C(C)(C(C)C)C(C)C (centres unmarked) [Compound B5]	3 min
CCCCCCNC(=O)C1CC(C)CCC1C(C)C (centres unmarked) [Compound A8]	2 min
CC(C)C(C)NC(=O)C(C)(C(C)C)C(C)C (centres unmarked) [Compound B4]	2 min
CCC(C)CNC(=O)C(C)(C(C)C)C(C)C (centres unmarked) [Compound B6]	2 min
CC(C)CCNC(=O)C(C)(C(C)C)C(C)C [Compound B2]	2 min
CC(C)CCNC(=O)C1CC(C)CCC1C(C)C (centres unmarked) [Compound A2]	2 min
CCC(CC)NC(=O)C(C)(C(C)C)C(C)C [Compound B7]	2 min
CCC(CC)NC(=O)C1CC(C)CCC1C(C)C (centres unmarked) [Compound A7]	2 min
CC1CCC(C(C)C)C(C(=O)NC(C)(C)CC(C)(C)C)C1 (centres unmarked) [Compound A15]	6 min
CCC(C)CNC(=O)C1CC(C)CCC1C(C)C (centres unmarked) [Compound A6]	2 min
CC(C)CC(C)NC(=O)C1CC(C)CCC1C(C)C (centres unmarked) [Compound A9]	4 min
CCC(C)(C)NC(=O)C1CC(C)CCC1C(C)C (centres unmarked) [Compound A1]	2 min
CC1CCC(C(C)C)C(C(=O)NC(C)C(C)C)C1 (centres unmarked) [Compound A4]	2 min

Same assay, conditions: 20 ppm aqueous solution; maximum cooling strength rated on a 1-10 scale

Structure (SMILES)	Peak cooling strength
CCCC(C)NC(=O)C(C)(C(C)C)C(C)C (centres unmarked) [Compound B5]	6
CCCCCCNC(=O)C1CC(C)CCC1C(C)C (centres unmarked) [Compound A8]	6
CC(C)C(C)NC(=O)C(C)(C(C)C)C(C)C (centres unmarked) [Compound B4]	4
CCC(C)CNC(=O)C(C)(C(C)C)C(C)C (centres unmarked) [Compound B6]	4
CC(C)CCCC(C)NC(=O)C1CC(C)CCC1C(C)C (centres unmarked) [Compound A14]	— ^a
CC(C)CCNC(=O)C(C)(C(C)C)C(C)C [Compound B2]	2
CC(C)CCNC(=O)C1CC(C)CCC1C(C)C (centres unmarked) [Compound A2]	7
CCC(CC)NC(=O)C(C)(C(C)C)C(C)C [Compound B7]	4
CCC(CC)NC(=O)C1CC(C)CCC1C(C)C (centres unmarked) [Compound A7]	6
CC1CCC(C(C)C)C(C(=O)NC(C)(C)CC(C)(C)C)C1 (centres unmarked) [Compound A15]	2
CCC(C)CNC(=O)C1CC(C)CCC1C(C)C (centres unmarked) [Compound A6]	6
CC(C)CC(C)NC(=O)C1CC(C)CCC1C(C)C (centres unmarked) [Compound A9]	3
CC(C)CCCC(C)NC(=O)C(C)(C(C)C)C(C)C (centres unmarked) [Compound B14]	— ^a
CCC(C)(C)NC(=O)C1CC(C)CCC1C(C)C (centres unmarked) [Compound A1]	8
CC1CCC(C(C)C)C(C(=O)NC(C)C(C)C)C1 (centres unmarked) [Compound A4]	5

Same assay, conditions: Table 4, repeats Table 2; 20 ppm aqueous solution, 1-10 scale

Structure (SMILES)	Peak Strength
CCCCCCNC(=O)C1CC(C)CCC1C(C)C (centres unmarked) [Compound A8]	6
CC(C)CCCC(C)NC(=O)C1CC(C)CCC1C(C)C (centres unmarked) [Compound A14]	—^a
CC(C)CCNC(=O)C1CC(C)CCC1C(C)C (centres unmarked) [Compound A2]	7
CCC(CC)NC(=O)C1CC(C)CCC1C(C)C (centres unmarked) [Compound A7]	6
CC1CCC(C(C)C)C(C(=O)NC(C)(C)CC(C)(C)C)C1 (centres unmarked) [Compound A15]	2
CCC(C)CNC(=O)C1CC(C)CCC1C(C)C (centres unmarked) [Compound A6]	6
CC(C)CC(C)NC(=O)C1CC(C)CCC1C(C)C (centres unmarked) [Compound A9]	3
CCC(C)(C)NC(=O)C1CC(C)CCC1C(C)C (centres unmarked) [Compound A1]	8
CC1CCC(C(C)C)C(C(=O)NC(C)C(C)C)C1 (centres unmarked) [Compound A4]	5

Same assay, conditions: sensory panel results

Structure (SMILES)	Cooling properties, in words
CCCCCCNC(=O)C1CC(C)CCC1C(C)C (centres unmarked) [Compound A8]	peak cooling strength exceeds both WS-3 and A4
CC1CCC(C(C)C)C(C(=O)NC(C)(C)CC(C)(C)C)C1 (centres unmarked) [Compound A15]	only as strong as A12 and much weaker than other coolants
CCC(C)(C)NC(=O)C1CC(C)CCC1C(C)C (centres unmarked) [Compound A1]	one of the most potent coolants found among the N-alkyl p-menthane carboxamides

Test system: not listed separately
Assay: Cooling strength and longevity in alcohol-free mouthwash
Format: in vivo
Conditions: compared with WS-5
Protocol: Select physiological coolants according to various embodiments were tested in an alcohol-free mouthwash and their impact was evaluated against the control (a known coolant WS-5).

Structure (SMILES)	Cooling effect in mouthwash, in words
CCCCCCNC(=O)C1CC(C)CCC1C(C)C (centres unmarked) [Compound A8]	superior long-lasting cooling effect
CC(C)CCNC(=O)C1CC(C)CCC1C(C)C (centres unmarked) [Compound A2]	superior long-lasting cooling effect
CCC(C)(C)NC(=O)C1CC(C)CCC1C(C)C (centres unmarked) [Compound A1]	superior long-lasting cooling effect

Test system: not listed separately
Assay: Cooling strength and longevity in toothpaste
Format: in vivo
Conditions: compared with controls
Protocol: New cooling compound according to compound A2 was tested in toothpaste and its impact was evaluated against two controls (no coolant and a known coolant WS-5) and in combination with WS-5.

Structure (SMILES)	Cooling effect in toothpaste, in words
CC(C)CCNC(=O)C1CC(C)CCC1C(C)C (centres unmarked) [Compound A2]	superior and longer lasting effect
